Data published in US9248193B2, “Formulations of phenyl uracil compounds” (AbbVie Inc., priority 2011, dated 2016).

Assay: Light degradation under ICH photo condition
Type: physicochemical

With `COc1c(/C=C/c2ccc(NS(C)(=O)=O)cc2)cc(-n2ccc(=O)[nH]c2=O)cc1C(C)(C)C` [Compound A, (E)-N-(4-(3-tert-butyl-5-(2,4-dioxo-3,4-dihydropyrimidin-1(2H)-yl)-2-methoxystyryl)phenyl)methanesulfonamide] the “Stability in solution upon exposure to light” value was “may convert into an alternative isomer”.
